Results on four molecules are retold here after US20190077856A1, “METHOD OF TREATING DISEASES USING KINASE MODULATORS” (Memorial Sloan Kettering Cancer Center, priority 2016, published 2019).

Data set [1] relates to JMN. Briefly: ADCC assay (51Cr release) with TCR mimic antibody ESKM after trametinib. Type of data set: cell-based, human. The conditions noted are these: 72 hours trametinib, non-cytotoxic dose. As for the experimental part:
(§1) Cells were incubated for 72 hours with either vehicle control or trametinib and subsequently exposed to either isotype antibody or ESKM in ADCC assay. FIG. 3B depicts an ADCC assay on Meso34 (human mesothelioma). The experimental setup was similar to FIG. 3A. FIG. 3C depicts an ADCC assay on SKMEL5 (human melanoma) using TCRm mAb PRAME against the PRAME epitope; the experimental setup was similar to FIG. 3A. FIG. 3D: B16F10 cells were exposed to pmel-1 (gp100) specific TCR T-cells for 24 hours, then killing was assessed using a clonogenic assay described previously (Budhu et al. 2010, J Exp Med 207:223-235)
(§2) ADCC: The HLA-A*02:01 positive mesothelioma cell lines JMN and Meso34, along with the melanoma cell line SK-MELS were used in the ADCC assay as a target (May et al. 2007, Clin Cancer Res 13:4547-4555) . Antibodies ESKM (Veomett et al., 2014, Clin Cancer Res 20(15):4036-4046), PRAME, or its isotype control hIgG1 at 3 ug/ml were incubated with target cells and fresh healthy donor PBMCs at different effector/target ratios for 6 hours, along with indicated doses of vehicle or trametinib in RPMI (Roswell Park Memorial Institute medium) supplemented with 10% fetal bovine serum (FBS). The supernatant was harvested, and the cytotoxicity was measured by a ^51Cr release assay (Perkin Elmer).

The test system of data set [2] is Meso34. The data set is described as above. It counts as cell-based, human. The conditions noted are these: 72 hours trametinib, non-cytotoxic dose. As for the experimental part: as §1, §2
Another data set has as its system SK-MEL-5. The experiment in a line: ADCC assay (51Cr release) with TCR mimic mAb Pr20m (PRAME) after trametinib. Type of data set: cell-based, human. As for the experimental part:
as §1, §2

A further data set deals with pERK. The experiment in a line: Titration of MEK inhibition by western blot for pERK and ERK. As to conditions: JMN and Meso34 cells; time=1 hour. Type of data set: cell-based, human. An excerpt:
(§3) It was hypothesized that the inhibition of the MAP kinase pathway might act on other components of the antigen presentation machinery in addition to MHC-I molecules, thus allowing increased epitope expression in the more abundant cell surface HLA molecules.

Data set [3] relates to JMN. Briefly: Time course of MEK inhibition and HLA-A / B2M protein, western blot. It counts as cell-based, human. As to conditions: 50 nM trametinib. As for the experimental part: FIG. 11: JMN was treated with 50 nM trametinib and lysate was analyzed as in FIG. 4C at different time points.
as §3

Data set [4] has as its system JMN. Briefly: Cell surface HLA-A / HLA-ABC by flow cytometry (BB7, W6/32) after 72 hours. It counts as cell-based, human. An excerpt: 1% DMSO was used as a vehicle control. […] Experimental setup was similar to FIG. 2A.
The test system of another data set is PC9. The experiment in a line: Cell surface HLA-A by flow cytometry (BB7) after 72 hours with inhibitor. It counts as cell-based, human. The conditions noted are these: PC9, activating EGFR mutation (del E746-A750).
Data set [5] deals with Meso34. Described as above. It counts as cell-based, human. As to conditions: Meso34 without an EGFR mutation, same dose.
In data set [6] the test system is NSCLC cell lines H827, H1975, H1299, A549. The experiment in a line: Surface HLA-ABC (MHC-I) on panel of NSCLC cell lines. It counts as cell-based, human. The conditions noted are these: for surface MHC-I: cell lines that had the sensitizing mutation; for sensitivity to up-regulating surface MHC-I: cell lines with downstream activating RAS mutations. An excerpt:
(§4) 1% DMSO was used as a vehicle control. […] Use of ESK antibody to a peptide derived from the oncoprotein WT1 that is presented on HLA-A0201. […] PRAME is a TCRm antibody against an epitope of PRAME tumor antigen presented on HLA-A0201 on SKMEL5. Experimental setup was similar to FIG. 2A. […] FIG. 2D: Use of EGFRi erlotinib and afatanib, along with MEKi trametinib on H827 (EGFR E746del-A750 mutation), H1975 (L858R/T790M), H1299 (EGFR wt, NRAS Q61K), and A549 (EGFR wt/KRAS G12S) to alter surface HLA-ABC levels. Student's t-test was done to compare each treatment to vehicle control. *P values annotated as in FIG. 1E. […] FIG. 2F: H1299 cells were transduced with retroviral vectors expressing EGFR L858R and were analyzed for surface pan HLA-ABC using W6/32. […] The NRAS Q61K mutation was introduced into H827 and cells were treated with EGFRi or MEKi as done in FIG. 2G.
(§5) Small molecule inhibitor studies: Compounds were obtained from SelleckChem (Houston, Tx. USA). Drugs were used at sub-cytostatic doses by titration using the Cell Titer Glo assay (Promega). All drugs were used in vitro at indicated doses in 1% dimethyl sulfoxide (DMSO).
The mechanism by which the MAP kinase pathway suppresses levels of HLA-A is unknown. Given that many cancers have activating mutations in specific genes in the MAP kinase pathway, inhibition of the identified hits was investigated in cell lines harboring mutations in EGFR, or downstream in Ras. A panel of NSCLC cell lines with activating mutations in EGFR, such as the delE746-A750 in H827, or L858R/T790M mutation in H1975, was utilized. The delE746-A750 confers sensitivity to erlotinib, whereas the T790M confers resistance to erlotinib and other first generation EGFR inhibitors, but is sensitive to afatanib (Cross et al., 2014, Cancer Discov 4(9):1046-61). EGFR wild type NSCLC lines with downstream mutations, such as activating NRAS Q61K in H1299 or KRAS G12S in A549, were also utilized.

Another data set concerns H827. As to conditions: similar level of suppression of pERK.
Source text: as §4, §5

A further data set relates to HLA-A and B2M protein. The conditions noted are these: erlotinib (EGFRi), 72 hours.

Source text for HLA-A and B2M protein: The HLA-A and B2M promoter was cloned upstream of the Gaussian Luciferase (GLuc) gene. Secreted embryonic alkaline phosphatase (SEAP) under the CMV promoter was used as a normalization factor.

Turning to `CC(=O)Nc1cccc(-n2c(=O)n(C3CC3)c(=O)c3c(Nc4ccc(I)cc4F)n(C)c(=O)c(C)c32)c1` [trametinib], in the data set on JMN [1], the “cytotoxicity of ESKM (ADCC)” value is “increased”. For the same molecule, in the data set on Meso34 [2], the “cytotoxicity of ESKM (ADCC)” value is listed as “increased”. Also, the “increased cytotoxicity of Pr20m mAb (ADCC)” value in the data set on SK-MEL-5 is recorded as “also observed”. In addition, the “dose to which cells were sensitive (pERK inhibition)” value in the data set on pERK is “less than 10 nM”. In the data set with JMN [3], the “time of maximal increases of HLA-A and B2M” value was found to be 72 h; the “time of maximal inhibition of MEK” value was 3 h.

Consider `CN(C)C/C=C/C(=O)Nc1cc2c(Nc3ccc(F)c(Cl)c3)ncnc2cc1O[C@H]1CCOC1` [afatanib], for which the HLA-A up-regulation response entry is given as “responded” with JMN [4] (72 hours, BB7 binding); “responded” in the data set on PC9; “did not respond” with Meso34 [5]. Besides, in data set [6], the “surface MHC-I” value is listed as “up-regulated”. Besides, in data set [6], the “sensitivity to up-regulating surface MHC-I” value is reported as “not observed”.

For `C#Cc1cccc(Nc2ncnc3cc(OCCOC)c(OCCOC)cc23)c1` [erlotinib], in data set [6], the “surface MHC-I” value is listed as “up-regulated” and the “sensitivity to up-regulating surface MHC-I” value is “not observed”. The “surface MHC-I response compared with MEKi by trametinib” value with H827 is on record as “responded more strongly”. Moreover, the “HLA-A and B2M protein” value with HLA-A and B2M protein is “dose dependent increase”.

Regarding “EGF: epidermal growth factor, EGF protein that turns on EGFR (NSDSECPLSHDGYCLHDGVCMYIEALDKYACNCVVGYIGERCQYRDLKWWELR; Epidermal growth factor; UniProt P01133 971-1023, looked up)”, in the data set on JMN [4] (10 nM EGF for 72 hours), the “surface HLA-A” value is given as “suppressed” and the “surface HLA-A,B,C” value is reported as “suppressed”.
